Test results taken from PubChem BioAssay (NCI).
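Protocol summary: plate cells (96-well), add compound at 5 concentrations, incubate 48 h, interpolate endpoints linearly. TGI denotes the concentration required for complete inhibition of growth.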

Key:
Assay in all cases: inhibition of tumour cell growth, NCI panel, 48 h
[1] = system: UO-31 renal
[2] = system: NCI-H460 lung
[3] = system: HCT-116 colon
[4] = system: OVCAR-3 ovarian
[5] = system: M19-MEL melanoma
[6] = system: SNB-19 CNS
[7] = system: HOP-18 NSCLC
[8] = system: HL-60(TB) leukemia
[9] = system: RXF-631 renal
[10] = system: RXF 393 renal
[11] = system: KM20L2 colon
[12] = system: HCT-15 colon
[13] = system: SF-539 CNS
[14] = system: MOLT-4 leukemia
[15] = system: 786-0 renal
[16] = system: A549 NSCLC
[17] = system: SF-268 CNS
[18] = system: UACC-62 melanoma
[19] = system: SW-620 colon
[20] = system: SN12C renal
[21] = system: K-562 leukemia
[22] = system: SK-OV-3 ovarian
[23] = system: M14 melanoma
[24] = system: UACC-257 melanoma
[25] = system: DMS 273 small cell lung
[26] = system: OVCAR-4 ovarian
[27] = system: CCRF-CEM leukemia
[28] = system: SK-MEL-2 melanoma
[29] = system: SR leukemia
[30] = system: DLD-1 colon
[31] = system: NCI-H226 lung
[32] = system: HCC-2998 colon
[33] = system: ACHN renal
[34] = system: MALME-3M melanoma
[35] = system: RPMI-8226 leukemia
[36] = system: KM12 colon
[37] = system: CAKI-1 renal
[38] = system: SNB-75 CNS
[39] = system: COLO 205 colon
[40] = system: OVCAR-8 ovarian
[41] = system: NCI-H522 lung
[42] = system: SK-MEL-5 melanoma
[43] = system: A498 renal
[44] = system: EKVX NSCLC
[45] = system: HOP-62 NSCLC
[46] = system: IGROV1 ovarian
[47] = system: TK-10 renal
[48] = system: U251 CNS
[49] = system: SNB-78 CNS
[50] = system: SK-MEL-28 melanoma
[51] = system: HOP-92 NSCLC
[52] = system: HT29 colon
[53] = system: SF-295 CNS
[54] = system: LXFL 529 NSCLC
[55] = system: DMS 114 small cell lung
[56] = system: NCI-H23 lung
[57] = system: DU-145 prostate
[58] = system: OVCAR-5 ovarian
[59] = system: MDA-MB-435
[60] = system: BT-549 breast
[61] = system: MDA-N
[62] = system: MCF7 breast
[63] = system: PC-3 prostate
[64] = system: T-47D breast
[65] = system: MDA-MB-231 breast
[66] = system: HS 578T breast
[67] = system: NCI/ADR-RES ovarian
[68] = system: LOX IMVI melanoma
[69] = system: XF 498 CNS

SMILES: CSc1nsc(-c2ccccc2)[s+]1
- TGI [1]: > 100 µM
- TGI [2]: > 100 µM
- TGI [3]: > 100 µM
- TGI [4]: > 100 µM
- TGI [5]: > 100 µM
- TGI [6]: > 100 µM
- TGI [7]: > 100 µM
- TGI [8]: > 100 µM
- TGI [9]: > 100 µM
- TGI [10]: > 100 µM
- TGI [11]: > 100 µM
- TGI [12]: > 100 µM
- TGI [13]: > 100 µM
- TGI [14]: > 100 µM
- TGI [15]: > 100 µM
- TGI [16]: > 100 µM
- TGI [17]: > 100 µM
- TGI [18]: > 100 µM
- TGI [19]: > 100 µM
- TGI [20]: > 100 µM
- TGI [21]: > 100 µM
- TGI [22]: > 100 µM
- TGI [23]: > 100 µM
- TGI [24]: > 100 µM
- TGI [25]: > 100 µM
- TGI [26]: > 100 µM
- TGI [27]: > 100 µM
- TGI [28]: > 100 µM
- TGI [29]: > 100 µM
- TGI [30]: > 100 µM
- TGI [31]: > 100 µM
- TGI [32]: > 100 µM
- TGI [33]: > 100 µM
- TGI [34]: > 100 µM
- TGI [35]: > 100 µM
- TGI [36]: > 100 µM
- TGI [37]: > 100 µM
- TGI [38]: > 100 µM
- TGI [39]: > 100 µM
- TGI [40]: > 100 µM
- TGI [41]: > 100 µM
- TGI [42]: > 100 µM
- TGI [43]: > 100 µM
- TGI [44]: > 100 µM
- TGI [45]: > 100 µM
- TGI [46]: > 100 µM
- TGI [47]: > 100 µM
- TGI [48]: > 100 µM
- TGI [49]: > 100 µM
- TGI [50]: > 100 µM

SMILES: O=S1(=O)OCCOS(=O)(=O)C1Br
- TGI [1]: > 100 µM
- TGI [3]: > 100 µM
- TGI [4]: > 100 µM
- TGI [5]: > 100 µM
- TGI [6]: > 100 µM
- TGI [8]: > 100 µM
- TGI [9]: > 100 µM
- TGI [51]: > 100 µM
- TGI [13]: > 100 µM
- TGI [52]: > 100 µM
- TGI [14]: > 100 µM
- TGI [15]: > 100 µM
- TGI [16]: > 100 µM
- TGI [17]: > 100 µM
- TGI [53]: > 100 µM
- TGI [18]: > 100 µM
- TGI [19]: > 100 µM
- TGI [20]: > 100 µM
- TGI [21]: > 100 µM
- TGI [22]: > 100 µM
- TGI [23]: > 100 µM
- TGI [54]: > 100 µM
- TGI [24]: > 100 µM
- TGI [25]: > 100 µM
- TGI [26]: > 100 µM
- TGI [27]: > 100 µM
- TGI [28]: > 100 µM
- TGI [29]: > 100 µM
- TGI [55]: > 100 µM
- TGI [30]: > 100 µM
- TGI [31]: > 100 µM
- TGI [32]: > 100 µM
- TGI [34]: > 100 µM
- TGI [35]: > 100 µM
- TGI [36]: > 100 µM
- TGI [37]: > 100 µM
- TGI [38]: > 100 µM
- TGI [39]: > 100 µM
- TGI [40]: > 100 µM
- TGI [41]: > 100 µM
- TGI [42]: > 100 µM
- TGI [43]: > 100 µM
- TGI [45]: > 100 µM
- TGI [46]: > 100 µM
- TGI [47]: > 100 µM
- TGI [49]: > 100 µM
- TGI [56]: > 100 µM
- TGI [50]: > 100 µM

SMILES: N#CC(C#N)=CNC(N)=S
- TGI [2]: > 100 µM
- TGI [3]: > 100 µM
- TGI [4]: > 100 µM
- TGI [6]: > 100 µM
- TGI [57]: > 100 µM
- TGI [8]: > 100 µM
- TGI [10]: > 100 µM
- TGI [51]: > 100 µM
- TGI [12]: > 100 µM
- TGI [13]: > 100 µM
- TGI [52]: > 100 µM
- TGI [14]: > 100 µM
- TGI [15]: > 100 µM
- TGI [16]: > 100 µM
- TGI [17]: > 100 µM
- TGI [53]: > 100 µM
- TGI [18]: > 100 µM
- TGI [19]: > 100 µM
- TGI [20]: > 100 µM
- TGI [21]: > 100 µM
- TGI [58]: > 100 µM
- TGI [22]: > 100 µM
- TGI [59]: > 100 µM
- TGI [60]: > 100 µM
- TGI [61]: > 100 µM
- TGI [62]: > 100 µM
- TGI [23]: > 100 µM
- TGI [63]: > 100 µM
- TGI [64]: > 100 µM
- TGI [24]: > 100 µM
- TGI [26]: > 100 µM
- TGI [27]: > 100 µM
- TGI [28]: > 100 µM
- TGI [29]: > 100 µM
- TGI [65]: > 100 µM
- TGI [31]: > 100 µM
- TGI [32]: > 100 µM
- TGI [33]: > 100 µM
- TGI [34]: > 100 µM
- TGI [35]: > 100 µM
- TGI [66]: > 100 µM
- TGI [36]: > 100 µM
- TGI [37]: > 100 µM
- TGI [38]: > 100 µM
- TGI [67]: > 100 µM
- TGI [39]: > 100 µM
- TGI [40]: > 100 µM
- TGI [41]: > 100 µM
- TGI [42]: > 100 µM
- TGI [43]: > 100 µM
- TGI [44]: > 100 µM
- TGI [45]: > 100 µM
- TGI [46]: > 100 µM
- TGI [48]: > 100 µM
- TGI [68]: > 100 µM
- TGI [56]: > 100 µM
- TGI [50]: > 100 µM

SMILES: Cc1ccc(NC(=O)c2cc3cc(N=Nc4ccccc4C(=O)O)ccc3oc2=O)cc1
- TGI [1]: > 100 µM
- TGI [2]: > 100 µM
- TGI [3]: > 100 µM
- TGI [4]: 74.2 µM
- TGI [6]: > 100 µM
- TGI [7]: > 100 µM
- TGI [8]: 69.4 µM
- TGI [69]: 85.8 µM
- TGI [10]: > 100 µM
- TGI [11]: > 100 µM
- TGI [12]: > 100 µM
- TGI [13]: 98.5 µM
- TGI [52]: > 100 µM
- TGI [14]: > 100 µM
- TGI [15]: > 100 µM
- TGI [16]: > 100 µM
- TGI [53]: > 100 µM
- TGI [18]: 85 µM
- TGI [19]: > 100 µM
- TGI [20]: > 100 µM
- TGI [21]: > 100 µM
- TGI [22]: > 100 µM
- TGI [23]: > 100 µM
- TGI [24]: 59.4 µM
- TGI [25]: > 100 µM
- TGI [27]: > 100 µM
- TGI [55]: 94.3 µM
- TGI [30]: > 100 µM
- TGI [31]: > 100 µM
- TGI [33]: > 100 µM
- TGI [34]: > 100 µM
- TGI [35]: > 100 µM
- TGI [36]: > 100 µM
- TGI [38]: > 100 µM
- TGI [39]: > 100 µM
- TGI [40]: > 100 µM
- TGI [41]: > 100 µM
- TGI [42]: > 100 µM
- TGI [44]: > 100 µM
- TGI [45]: > 100 µM
- TGI [46]: > 100 µM
- TGI [47]: > 100 µM
- TGI [48]: > 100 µM
- TGI [68]: > 100 µM
- TGI [56]: > 100 µM
- TGI [50]: > 100 µM
